The values below come from US8263598B2, “Substituted sulfonamide compounds” (Gruenenthal GmbH, priority 2008, dated 2012).

Assay [1] deals with T1, B1R receptor of rats (rB1R) (Rattus norvegicus, UniProt P97583).
T1 construct: host or cells: CHO K1 cells
T1 sequence (P97583 1-337): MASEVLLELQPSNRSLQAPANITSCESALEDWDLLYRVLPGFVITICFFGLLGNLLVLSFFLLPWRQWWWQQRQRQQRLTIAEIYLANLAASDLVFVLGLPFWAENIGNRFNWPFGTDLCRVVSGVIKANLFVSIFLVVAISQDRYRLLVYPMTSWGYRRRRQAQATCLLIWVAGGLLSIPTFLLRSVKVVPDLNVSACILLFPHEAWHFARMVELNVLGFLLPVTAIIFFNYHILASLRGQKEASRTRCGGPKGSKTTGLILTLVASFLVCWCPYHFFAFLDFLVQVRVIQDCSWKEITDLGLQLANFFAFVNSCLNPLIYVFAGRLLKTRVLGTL
As to the kind of experiment: FLIPR Ca2+ assay on rat bradykinin 1 receptor (CHO K1 rB1R cells). The format is cell-based. As to conditions: test substance 10 μM; CHO K1 cells with B1R gene of rats; agonist Des-Arg9-bradykinin 100 nM; compared to maximum achievable inhibition. The procedure, abridged: (§1)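 CHO K1 cells stably expressing human or rat B1R were loaded with Fluo-4 and tested at 10 μM compound. Ca²⁺ signal was read in FLIPR as % activation versus agonist. After 10 min, agonist was added (hB1R: Lys-Des-Arg9-bradykinin 0.5 nM; rB1R: Des-Arg9-bradykinin 100 nM), and % inhibition was taken relative to maximum achievable inhibition.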

Assay [2] deals with T2, human B1R receptor (hB1R) (Homo sapiens, UniProt P46663).
T2 construct: host or cells: CHO K1 cells
T2 sequence (P46663 1-353): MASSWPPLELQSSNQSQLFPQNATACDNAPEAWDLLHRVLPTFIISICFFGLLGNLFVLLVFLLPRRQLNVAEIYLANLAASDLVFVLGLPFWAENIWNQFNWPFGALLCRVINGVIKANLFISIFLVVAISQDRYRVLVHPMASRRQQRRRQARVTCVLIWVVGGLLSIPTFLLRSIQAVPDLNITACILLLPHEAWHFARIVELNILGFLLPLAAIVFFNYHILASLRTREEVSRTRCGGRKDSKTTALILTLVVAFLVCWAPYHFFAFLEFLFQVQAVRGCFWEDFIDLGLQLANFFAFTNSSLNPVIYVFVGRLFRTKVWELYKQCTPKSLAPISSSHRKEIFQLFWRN
The assay can be described thus: FLIPR Ca2+ assay on human bradykinin 1 receptor (CHO K1 hB1R cells). Format: cell-based. As to conditions: test substance 10 μM; CHO K1 cells with human B1R gene; agonist Lys-Des-Arg9-bradykinin 0.5 nM; compared to maximum achievable inhibition. The procedure, abridged: as §1

Consider `Cc1cc(C)c(S(=O)(=O)N(C)CCOCC(=O)N2CCn3c(CN(C)C)ccc3C2c2cccs2)c(C)c1` (stereo not shown) [Example 144, N-(2-(2-(6-((dimethylamino)methyl)-1-(thiophen-2-yl)-3,4-dihydropyrrolo[1,2-a]pyrazin-2(1H)-yl)-2-oxoethoxy)ethyl)-N,2,4,6-tetramethylbenzenesulfonamide], for which the inhibition at 10 µM in assay [1] and in assay [2] was 104% throughout.
On to `O=C(CC(NS(=O)(=O)c1ccc2ccccc2c1)c1ccccc1)N1CCn2c(ccc2-c2ccncc2)C1` (stereo not shown) [Example 168, N-(3-Oxo-1-phenyl-3-(6-(pyridin-4-yl)-3,4-dihydropyrrolo[1,2-a]pyrazin-2(1H)-yl)propyl)naphthalene-2-sulfonamide], for which the inhibition at 10 µM in assay [1] is 57%; in assay [2], 55%.
For `COc1cc(C)c(S(=O)(=O)N(CCOCC(=O)N2CCn3c(CN4CCCC4)ccc3C2c2ccccc2)Cc2ccccc2)c(C)c1C` (stereo not shown) [Example 116, N-benzyl-4-methoxy-2,3,6-trimethyl-N-(2-(2-oxo-2-(1-phenyl-6-(pyrrolidin-1-ylmethyl)-3,4-dihydropyrrolo[1,2-a]pyrazin-2(1H)-yl)ethoxy)ethyl)benzene-sulfonamide] the same measures were 102% and 103%.
On to `O=C(CC(NS(=O)(=O)c1ccc2ccccc2c1)c1ccccc1)N1CCn2c(CN3CCCC3)ccc2C1` (stereo not shown) [Example 8, N-(3-oxo-1-phenyl-3-(6-(pyrrolidin-1-ylmethyl)-3,4-dihydropyrrolo[1,2-a]pyrazin-2(1H)-yl)propyl)naphthalene-2-sulfonamide], for which the inhibition at 10 µM in assay [1] is 42%; in assay [2], 95%.
For `Cc1cc(C)c(S(=O)(=O)N(C)CCOCC(=O)N2CCn3cccc3C2C)c(C)c1` (stereo not shown) [Example 66, N,2,4,6-tetramethyl-N-(2-(2-(1-methyl-3,4-dihydropyrrolo[1,2-a]pyrazin-2(1H)-yl)-2-oxoethoxy)ethyl)benzenesulfonamide] the same measures were 92% and 87%.
As to `Cc1cc(C)c(S(=O)(=O)N(C)CCOCC(=O)N2CCn3c(CN(C)C)ccc3C2Cc2ccccc2)c(C)c1` (stereo not shown) [Example 143, N-(2-(2-(1-benzyl-6-((dimethylamino)methyl)-3,4-dihydropyrrolo[1,2-a]pyrazin-2(1H)-yl)-2-oxoethoxy)ethyl)-N,2,4,6-tetramethylbenzenesulfonamide], the inhibition at 10 µM in assay [1] came to 99%; in assay [2], 100%.
For `CCC1c2cccn2CCN1C(=O)COCCN(C)S(=O)(=O)c1cc(C)c(OC)c(C)c1C` (stereo not shown) [Example 114, N-(2-(2-(1-ethyl-3,4-dihydropyrrolo[1,2-a]pyrazin-2(1H)-yl)-2-oxoethoxy)ethyl)-4-methoxy-N,2,3,5-tetramethylbenzenesulfonamide] the same measures were 42% and 80%.
For `COc1ccc(C2c3cccn3CCN2C(=O)COCCN(C)S(=O)(=O)c2c(C)cc(OC)c(C)c2C)cc1` (stereo not shown) [Example 83, 4-methoxy-N-(2-(2-(1-(4-methoxyphenyl)-3,4-dihydropyrrolo[1,2-a]pyrazin-2(1H)-yl)-2-oxoethoxy)ethyl)-N,2,3,6-tetramethylbenzenesulfonamide] the same measures were 100% and 101%.
The corresponding values for `COc1cc(C)c(S(=O)(=O)N(C)CCOCC(=O)N2CCn3cc(CCc4ccncc4)nc3C2)c(C)c1` [Example 178, 4-Methoxy-N,2,6-trimethyl-N-(2-(2-oxo-2-(2-(2-(pyridin-4-yl)ethyl)-5,6-dihydroimidazo[1,2-a]pyrazin-7(8H)-yl)ethoxy)ethyl)benzenesulfonamide] are 100% and 99%.
For the compound `COc1cc(C)c(S(=O)(=O)N(C)CCOCC(=O)N2CCn3cc(CN4CCCCC4)nc3C2)c(C)c1` [Example 2, 4-methoxy-N,2,6-trimethyl-N-(2-(2-oxo-2-(2-(piperidin-1-ylmethyl)-5,6-dihydroimidazo[1,2-a]pyrazin-7(8H)-yl)ethoxy)ethyl)benzenesulfonamide], the inhibition at 10 µM in assay [1] was 104%; in assay [2], 106%.
The corresponding values for `COc1cc(C)c(S(=O)(=O)N(C)CCOCC(=O)N2CCn3cccc3C2CCc2ccccc2)c(C)c1` (stereo not shown) [Example 133, 4-methoxy-N,2,6-trimethyl-N-(2-(2-oxo-2-(1-phenethyl-3,4-dihydropyrrolo[1,2-a]pyrazin-2(1H)-yl)ethoxy)ethyl)benzenesulfonamide] are 102% and 105%.
For `COc1c(C)cc(S(=O)(=O)N(C)CCOCC(=O)N2CCn3cccc3C2C(C)(C)C)c(C)c1C` (stereo not shown) [Example 27, N-(2-(2-(1-tert-butyl-3,4-dihydropyrrolo[1,2-a]pyrazin-2(1H)-yl)-2-oxoethoxy)ethyl)-4-methoxy-N,2,3,5-tetramethylbenzenesulfonamide] the same measures were 98% and 95%.
For `COc1c(C)cc(S(=O)(=O)N(C)CCOCC(=O)N2CCn3c(CN(C)C)ccc3C2c2ccccc2)c(C)c1C` (stereo not shown) [Example 105, N-(2-(2-(6-((dimethylamino)methyl)-1-phenyl-3,4-dihydropyrrolo[1,2-a]pyrazin-2(1H)-yl)-2-oxoethoxy)ethyl)-4-methoxy-N,2,3,5-tetramethylbenzene-sulfonamide] the same measures were 100% and 100%.
For the compound `COc1cc(C)c(S(=O)(=O)N(CCOCC(=O)N2CCn3cccc3C2C(C)C)Cc2ccccc2)c(C)c1` (stereo not shown) [Example 155, N-benzyl-N-(2-(2-(1-isopropyl-3,4-dihydropyrrolo[1,2-a]pyrazin-2(1H)-yl)-2-oxoethoxy)ethyl)-4-methoxy-2,6-dimethylbenzenesulfonamide], the inhibition at 10 µM in assay [1] is 101%; in assay [2], 75%.
The corresponding values for `COc1cc(C)c(S(=O)(=O)N(C)CCOCC(=O)N2CCn3c(CN4CCCC4)ccc3C2)c(C)c1` [Example 11, 4-methoxy-N,2,6-trimethyl-N-(2-(2-oxo-2-(6-(pyrrolidin-1-ylmethyl)-3,4-dihydropyrrolo[1,2-a]pyrazin-2(1H)-yl)ethoxy)ethyl)benzenesulfonamide] are 102% and 103%.
Consider `COc1cc(C)c(S(=O)(=O)N(C)CCOCC(=O)N2CCn3c(CCCN4CCN(C)CC4)ccc3C2)c(C)c1` [Example 12, 4-methoxy-N,2,6-trimethyl-N-(2-(2-(6-(3-(4-methylpiperazin-1-yl)propyl)-3,4-dihydropyrrolo[1,2-a]pyrazin-2(1H)-yl)-2-oxoethoxy)ethyl)benzenesulfonamide], for which the inhibition at 10 µM worked out at 100% in assay [1] and 97% in assay [2].
`Cc1cc(C)c(S(=O)(=O)N(C)CCOCC(=O)N2CCn3cccc3C2c2cccc(F)c2)c(C)c1` (stereo not shown) [Example 73, N-(2-(2-(1-(3-fluorophenyl)-3,4-dihydropyrrolo[1,2-a]pyrazin-2(1H)-yl)-2-oxoethoxy)ethyl)-N,2,4,6-tetramethylbenzenesulfonamide]: the figures for the inhibition at 10 µM in assay [1] and in assay [2] were 99% and 102%, respectively.
The corresponding values for `COc1cc(C)c(S(=O)(=O)N(C)CCOCC(=O)N2CCn3cccc3C2c2ccc(Cl)nc2)c(C)c1C` (stereo not shown) [Example 82, N-(2-(2-(1-(6-chloropyridin-3-yl)-3,4-dihydropyrrolo[1,2-a]pyrazin-2(1H)-yl)-2-oxoethoxy)ethyl)-4-methoxy-N,2,3,6-tetramethylbenzenesulfonamide] are 99% and 101%.
In the case of `COc1cc(C)c(S(=O)(=O)N(C)CCOCC(=O)N2CCn3cccc3C2c2cccnc2)c(C)c1` (stereo not shown) [Example 54, 4-methoxy-N,2,6-trimethyl-N-(2-(2-oxo-2-(1-(pyridin-3-yl)-3,4-dihydropyrrolo[1,2-a]pyrazin-2(1H)-yl)ethoxy)ethyl)benzenesulfonamide], the inhibition at 10 µM in assay [1] came out at 93%; in assay [2] it was 98%.
Consider `COc1cc(C)c(S(=O)(=O)N(C)CCOCC(=O)N2CCn3c(CN4CCCCC4)ccc3C2c2ccccc2)c(C)c1C` (stereo not shown) [Example 149, 4-methoxy-N,2,3,6-tetramethyl-N-(2-(2-oxo-2-(1-phenyl-6-(piperidin-1-ylmethyl)-3,4-dihydropyrrolo[1,2-a]pyrazin-2(1H)-yl)ethoxy)ethyl)benzene-sulfonamide], for which the inhibition at 10 µM in assay [1] and in assay [2] was 104% in each case.
